Test results published in EP4410284A1, “COMPOUND AND METHOD FOR THE TREATMENT OF ZELLWEGER SPECTRUM DISORDER” (Apteeus, priority 2023, dated 2024).
Where a name gives a salt, the structure may show the parent alone. Read-outs that look alike come from different tables or passages of the source.

Legend:
GM16513 cells [1] = test: Catalase import immunofluorescence, high-content screening (% importing cells); format: cell-based, human; conditions: GM16513 cells, 3 days; for EC50 / Emax: Homo sapiens, 72 h, dose response with 6 concentrations; for EC50: read-out: EC50; for Emax: read-out: Max Efficacy (% Importing cells)
PEX405 cells [2] = test: as above; format: cell-based, human; conditions: for Concentration (lower dose leading to the maximum effect) / Importing cells (%): PEX405 (PEX1); for Importing cells (%): at the lower dose leading to the maximum effect (see E12); for % Importing cells: PEX405 cells, 3 days
GM16513 cells [3] = format: cell-based; conditions: 3 days, PI positive cells (dead cells)
PEX405 cells [4] = format: cell-based; conditions: 3 days, PI positive cells (dead cells)
GM 16865 = test: Catalase import immunofluorescence (% importing cells); format: cell-based, human; conditions: GM 16865 (PEX26); for Importing cells (%): at the lower dose leading to the maximum effect (see E22)
Procedure: (§1) Primary fibroblasts were seeded at 500-700 cells per well in 384-well plates and grown at 37°C overnight. Cells were treated with test compounds or 0.1% DMSO for 3 days. After 3 days and a wash with PBS, cells were fixed with 4% paraformaldehyde (Electron Microscopy Sciences) in PBS for 20 minutes. After 3 washes with PBS, the cells were permeabilized and blocked with 0.3% Triton X-100, 1% BSA in PBS for 30 minutes at room temperature followed by 3 washes with 1% BSA in PBS. The cells were incubated with a rabbit Catalase polyclonal antibody (#12980 Cell signaling) overnight at 4°C. Following 3 washes with PBS containing 0.1% Tween-20, the cells were incubated for 1 h at room temperature with a conjugated goat anti-rabbit secondary antibody Alexa Fluor 647 (Ab150083-Abcam). The cells were then washed 3 times with PBS and Hoechst 33342 (H3570-ThermoFisher Scientific) + HCS Cellmask Blue (H32720 - ThermoFisher Scientific) staining was performed at 0.1 µg/ml and 0.4 µg/mL respectively for 30 minutes at room temperature. The cells were finally washed 3 times with PBS and fluorescent images were acquired using the INCell Analyzer 6000 imaging platform (GE Healthcare Life Sciences).
(§2) Images analysis was done using Columbus analysis software (PerkinElmer). DAPI channel was used to find nuclei (Hoechst 33342) and cytoplasm (HCS CellMask Blue) and border objects were removed. Cy5 channel (AlexaFluor 647) was used to find spots corresponding to peroxisomes which correctly import catalase. Cells were classified as importing or non-importing cells using a linear classifier method after training with images of wells containing Healthy cells and PEX1 deficient cells. The number of importing or non-importing cells was calculated. Finally, results were expressed as % of importing cells.
(§3) Among the HDAC inhibitors of example 2, 4 were tested on other cells which are PEX1, PEX6 or PEX26 deficient.

GM 17398 = test: as above; format: cell-based, human; conditions: GM 17398 (PEX26 deficient); for Importing cells (%): at the lower dose leading to the maximum effect (see E24)
Procedure: as §1, §2, §3

GM11335 = test: as above; format: cell-based, human; conditions: GM11335 (PEX26); for Importing cells (%): at the lower dose leading to the maximum effect (see E20)
Procedure: as §1, §2, §3

PEX506 = test: as above; format: cell-based, human; conditions: PEX506 (PEX6); for Importing cells (%): at the lower dose leading to the maximum effect (see E16)
Procedure: as §1, §2, §3

PEX304 = test: as above; format: cell-based, human; conditions: PEX304 (PEX1); for Importing cells (%): at the lower dose leading to the maximum effect (see E14)
Procedure: as §1, §2, §3

PEX607 = test: as above; format: cell-based, human; conditions: PEX607 (PEX6); for Importing cells (%): at the lower dose leading to the maximum effect (see E18)
Procedure: as §1, §2, §3

GM16513 cells [5] = test: Plasmalogens synthesis (LC-MS/MS); format: cell-based, human
Procedure: The assay was performed in T75 culture flasks for 3 or 10 days. The medium was replaced by fresh medium every 2-3 days. After 3 or 10 days, the cells were harvested and lysated in water (100-200 µL) by freeze/thaw cycle and sonication for 5 min. Total proteins were quantified using BCA assay and 100 µg of total proteins were used for each sample.
After cell lysis, the samples were dried using a rotating evaporator (Genevac EZ-2, SP Scientific), set at 40°C for 2h under vacuum. Then a solution containing water/acetonitrile 20/80 v/v was added to the wells. Before analysis, the samples were centrifuged at 4000 rpm for 20 min at room temperature. For the separation of plasmalogens by liquid chromatography, a Waters Acquity ultra-performance liquid chromatography (UPLC) system (Acquity I-Class, Waters) was used. A Waters Acquity UPLC BEH (Ethylene Bridged Hybrid) C8 column (2.1 × 50mm, particle size 1.7 µm, pore size 130 A, 2.1mm inner diameter) preceded by a metal pre-filter (KrudKatcher Ultra HPLC In-Line Filter, AF0-8497, Phenomenex) was used for separation. The column temperature was maintained at 50°C. The injection volume was 5µL for each analysis. The mobile phase A was composed of water + 0.1% formic acid and the mobile phase B was methanol + 0.1% formic acid. The separation was done using a gradient, with a flow rate set at 0.7 mL/min throughout the separation:
During analysis, the samples were kept at 10°C, and 5 µL of each sample were injected. After separation by liquid chromatography, the analytes were subjected to MS/MS analysis using a Waters Xevo TQSmicro system (Waters). The analytes were ionized using positive electrospray ionization (positive ESI). The molecules were analyzed using MRM mode. The analyzed plasmalogens contained moieties with C16:0, C18:0, C18:1 at the sn-1 position and fatty acid of chain-length 18 to 24 with 1 to 6 unsaturations at the sn-2 position. […] The cellular levels of plasmalogens were calculated using the area of each plasmalogen divided by protein quantity. […] The acquired data were analyzed by the Waters MassLynx software.

| EC50 (GM16513 cells [1]) [nM] | % PI+ cells (GM16513 cells [3]; 1.3 µM) [%] | % PI+ cells (GM16513 cells [3]; 10 µM) [%] | % PI+ cells (PEX405 cells [4]; 1.3 µM) [%] | % PI+ cells (PEX405 cells [4]; 10 µM) [%] | SMILES | % Importing cells (GM16513 cells [1]; 1.3 µM) [%] | % Importing cells (GM16513 cells [1]; 10 µM) [%] | Emax (GM16513 cells [1]) [%] | Concentration (lower dose leading to the maximum effect) (PEX405 cells [2]) [µM] | Importing cells (%) (PEX405 cells [2]) | % Importing cells (PEX405 cells [2]; 1.3 µM) [%] | % Importing cells (PEX405 cells [2]; 10 µM) [%] | Concentration (lower dose leading to the maximum effect) (GM 16865) [µM] | Importing cells (%) (GM 16865) | Concentration (lower dose leading to the maximum effect) (GM 17398) [µM] | Importing cells (%) (GM 17398) | Concentration (lower dose leading to the maximum effect) (GM11335) [µM] | Importing cells (%) (GM11335) | Concentration (lower dose leading to the maximum effect) (PEX506) [µM] | Importing cells (%) (PEX506) | further results |
| --- | --- | --- | --- | --- | --- | --- | --- | --- | --- | --- | --- | --- | --- | --- | --- | --- | --- | --- | --- | --- | --- |
| 200 | 4 | 21 | 1 | 42 | O=C(/C=C/c1cccc(S(=O)(=O)Nc2ccccc2)c1)NO [Belinostat] | 95 | 97 | 98 | 2.5 | 41 | 52 | 27 | 0.85 | 35 | 2.5 | 0 | 0.85 | 30 | 0.25 | 64 | Concentration (lower dose leading to the maximum effect) (PEX304): 2.5 µM; Importing cells (%) (PEX304): 11%; Concentration (lower dose leading to the maximum effect) (PEX607): 0.85 µM; Importing cells (%) (PEX607): 43%; plasmalogen levels (GM16513 cells [5]; 0.5 µM over 3 or 10 days): increased |
| 170 | 6 | 29 | 3 | 41 | CCN(CC)Cc1ccc2cc(COC(=O)Nc3ccc(C(=O)NO)cc3)ccc2c1 [Givinostat (hydrochloride monohydrate), Givinostat] | 81 | 32 | 80 | 0.25 | 13 | 12 | 6 | 0.25 | 20 | 2.5 | 0 | 0.087 | 20 | 0.087 | 69 | Concentration (lower dose leading to the maximum effect) (PEX304): 0.85 µM; Importing cells (%) (PEX304): 5%; Concentration (lower dose leading to the maximum effect) (PEX607): 0.25 µM; Importing cells (%) (PEX607): 42%; plasmalogen levels (GM16513 cells [5]; treatment over 3 days): increased |
